The values that follow come from ChEMBL document CHEMBL1671716, “Antimicrobial susceptibility patterns for recent clinical isolates of anaerobic bacteria in South Korea” (2010).

The structures appear in SMILES notation. Values after ≈ are worked out from the molar mass of the structure shown.

In one assay the test system is Clostridium perfringens. Put plainly: Antimicrobial activity against Clostridium perfringens after 48 hrs by agar dilution method. It counts as functional. In general terms: In agar dilution the substance is mixed into plates at graded concentrations.
For a further assay, the system named is Clostridioides difficile. As to the kind of experiment: Antimicrobial activity against Clostridium difficile after 48 hrs by agar dilution method. It counts as functional.

By MIC50 is commonly meant an inhibitory concentration at the 50% level, which refers to growth in some studies and to a panel of isolates in others. A low value points to higher susceptibility. A word on the MIC90: it is an inhibitory concentration at the 90% level, which refers to growth in some studies and to a panel of isolates in others. A high value points to lower susceptibility. On to `CN[C@H](CC(C)C)C(=O)N[C@H]1C(=O)N[C@@H](CC(N)=O)C(=O)N[C@H]2C(=O)N[C@H]3C(=O)N[C@H](C(=O)N[C@H](C(=O)O)c4cc(O)cc(O)c4-c4cc3ccc4O)[C@H](O)c3ccc(c(Cl)c3)Oc3cc2cc(c3O[C@@H]2O[C@H](CO)[C@@H](O)[C@H](O)[C@H]2O[C@H]2C[C@](C)(N)[C@H](O)[C@H](C)O2)Oc2ccc(cc2Cl)[C@H]1O` [VANCOMYCIN], for which, in the assay with Clostridium perfringens, the MIC50 was 0.5 µg/mL (≈ 0.345 µM) and the MIC90 amounted to 0.5 µg/mL (≈ 0.345 µM). In the assay with Clostridioides difficile, the MIC50 was found to be 0.5 µg/mL (≈ 0.345 µM) and the MIC90 came out at 2 µg/mL (≈ 1.38 µM).
